Assay [1] deals with T1, Acetylcholinesterase (Electrophorus electricus, UniProt O42275). Description: Inhibition of electrical eel AChE by ellman's method.
The target in assay [2] is Cholinesterase (Equus caballus, UniProt P81908).
Description: Inhibition of equine serum BuChE by ellman's method
The target in assay [3] is T2, Cholinesterase (Homo sapiens, UniProt P06276).
Description: Binding affinity to BuChE (unknown origin) assessed as inhibition constant incubated for 30 mins by ellman's method
In assay [4] the target is T3, Acetylcholinesterase (Homo sapiens, UniProt P22303).
Description: Binding affinity to AChE (unknown origin) assessed as inhibition constant incubated for 30 mins by ellman's method
Assay [5] addresses T1, Acetylcholinesterase.
Description: Binding affinity to electrical eel AChE assessed as inhibition constant incubated for 20 mins by absorbance based analysis
For assay [6], the target named is T2, Cholinesterase. The source holds these as a separate data set.
Description: Binding affinity to BuChE (unknown origin) assessed as inhibition constant
Assay [7] concerns the target Cholinesterase (Mus musculus, UniProt Q03311). Nature of the assay: Inhibition of mouse serum BuChE. The assay is classed as cell-free.
Assay [8] deals with T4, Acetylcholinesterase (Mus musculus, UniProt P21836).
T4 sequence (P21836 whole entry): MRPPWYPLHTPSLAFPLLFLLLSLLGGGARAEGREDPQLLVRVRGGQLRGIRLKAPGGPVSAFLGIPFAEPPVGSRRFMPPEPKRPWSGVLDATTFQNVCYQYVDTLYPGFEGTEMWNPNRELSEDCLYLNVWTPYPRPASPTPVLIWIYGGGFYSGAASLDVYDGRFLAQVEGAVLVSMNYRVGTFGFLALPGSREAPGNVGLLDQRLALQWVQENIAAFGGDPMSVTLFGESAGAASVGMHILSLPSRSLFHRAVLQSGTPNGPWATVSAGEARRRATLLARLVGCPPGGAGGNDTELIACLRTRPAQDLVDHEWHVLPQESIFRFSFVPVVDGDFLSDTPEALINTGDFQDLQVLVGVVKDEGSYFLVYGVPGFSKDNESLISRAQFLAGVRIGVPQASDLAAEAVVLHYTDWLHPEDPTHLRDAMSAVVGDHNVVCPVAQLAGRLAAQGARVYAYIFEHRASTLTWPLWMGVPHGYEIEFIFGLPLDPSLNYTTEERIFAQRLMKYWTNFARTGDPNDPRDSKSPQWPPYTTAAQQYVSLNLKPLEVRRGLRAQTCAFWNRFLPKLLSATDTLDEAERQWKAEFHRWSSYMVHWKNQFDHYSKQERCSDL
Description: Inhibition of mouse brain AChE. Format: tissue-based.

Assay [9] addresses T3, Acetylcholinesterase. Description: Inhibition of AChE (unknown origin).

Each structure is given as a SMILES string.

T3 sequence (P22303 whole entry): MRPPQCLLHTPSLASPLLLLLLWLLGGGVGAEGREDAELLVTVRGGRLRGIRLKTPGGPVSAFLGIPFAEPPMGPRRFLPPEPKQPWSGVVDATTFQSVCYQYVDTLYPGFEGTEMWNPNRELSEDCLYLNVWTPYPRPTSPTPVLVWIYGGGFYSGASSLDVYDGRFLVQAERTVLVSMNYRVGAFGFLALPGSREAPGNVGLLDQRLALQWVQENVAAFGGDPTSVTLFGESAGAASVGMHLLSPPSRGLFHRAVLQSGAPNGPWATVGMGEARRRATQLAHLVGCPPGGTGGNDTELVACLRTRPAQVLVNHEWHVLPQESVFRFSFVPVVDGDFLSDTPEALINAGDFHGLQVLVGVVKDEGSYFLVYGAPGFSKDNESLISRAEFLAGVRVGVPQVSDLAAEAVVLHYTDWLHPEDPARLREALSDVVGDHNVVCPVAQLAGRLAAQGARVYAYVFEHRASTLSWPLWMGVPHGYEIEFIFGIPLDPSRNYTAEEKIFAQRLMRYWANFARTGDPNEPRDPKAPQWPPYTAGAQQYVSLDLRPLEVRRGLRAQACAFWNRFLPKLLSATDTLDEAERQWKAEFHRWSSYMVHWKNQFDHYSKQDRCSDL
T2 sequence (P06276 whole entry): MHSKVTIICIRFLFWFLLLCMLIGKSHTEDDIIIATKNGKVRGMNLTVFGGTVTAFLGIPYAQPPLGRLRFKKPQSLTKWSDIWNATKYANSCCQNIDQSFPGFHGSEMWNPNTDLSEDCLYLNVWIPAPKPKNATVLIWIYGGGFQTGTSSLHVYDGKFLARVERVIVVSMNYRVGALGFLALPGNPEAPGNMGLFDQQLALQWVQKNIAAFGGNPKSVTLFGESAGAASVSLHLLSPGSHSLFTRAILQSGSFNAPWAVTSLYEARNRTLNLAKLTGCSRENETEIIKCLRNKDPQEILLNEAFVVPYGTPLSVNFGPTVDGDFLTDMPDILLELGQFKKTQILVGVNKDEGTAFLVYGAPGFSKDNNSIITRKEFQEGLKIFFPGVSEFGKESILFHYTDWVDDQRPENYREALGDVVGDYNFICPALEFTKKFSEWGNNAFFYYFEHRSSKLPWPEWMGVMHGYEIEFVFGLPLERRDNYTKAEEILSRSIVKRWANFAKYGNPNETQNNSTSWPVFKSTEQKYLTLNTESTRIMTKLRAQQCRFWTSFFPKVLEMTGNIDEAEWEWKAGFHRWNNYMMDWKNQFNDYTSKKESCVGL
Sequence of Cholinesterase (Mus musculus, UniProt Q03311) (Q03311 whole entry): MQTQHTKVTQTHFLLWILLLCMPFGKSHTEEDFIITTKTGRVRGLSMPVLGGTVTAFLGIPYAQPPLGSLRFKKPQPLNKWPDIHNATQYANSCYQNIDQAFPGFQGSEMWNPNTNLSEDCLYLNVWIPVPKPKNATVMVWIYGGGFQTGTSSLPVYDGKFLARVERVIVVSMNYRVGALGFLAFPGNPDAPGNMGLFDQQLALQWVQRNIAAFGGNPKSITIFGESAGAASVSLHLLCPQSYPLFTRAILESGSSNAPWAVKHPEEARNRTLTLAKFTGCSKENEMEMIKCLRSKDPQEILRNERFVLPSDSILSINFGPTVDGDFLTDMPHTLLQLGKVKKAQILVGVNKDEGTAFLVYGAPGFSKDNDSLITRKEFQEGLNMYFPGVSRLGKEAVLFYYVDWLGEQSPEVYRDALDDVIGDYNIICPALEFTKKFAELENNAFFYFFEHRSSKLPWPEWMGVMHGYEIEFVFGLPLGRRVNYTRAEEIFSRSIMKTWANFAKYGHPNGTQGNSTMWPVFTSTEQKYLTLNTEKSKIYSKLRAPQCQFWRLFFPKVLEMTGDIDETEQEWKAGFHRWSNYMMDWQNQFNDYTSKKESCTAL
T1 sequence (O42275 whole entry): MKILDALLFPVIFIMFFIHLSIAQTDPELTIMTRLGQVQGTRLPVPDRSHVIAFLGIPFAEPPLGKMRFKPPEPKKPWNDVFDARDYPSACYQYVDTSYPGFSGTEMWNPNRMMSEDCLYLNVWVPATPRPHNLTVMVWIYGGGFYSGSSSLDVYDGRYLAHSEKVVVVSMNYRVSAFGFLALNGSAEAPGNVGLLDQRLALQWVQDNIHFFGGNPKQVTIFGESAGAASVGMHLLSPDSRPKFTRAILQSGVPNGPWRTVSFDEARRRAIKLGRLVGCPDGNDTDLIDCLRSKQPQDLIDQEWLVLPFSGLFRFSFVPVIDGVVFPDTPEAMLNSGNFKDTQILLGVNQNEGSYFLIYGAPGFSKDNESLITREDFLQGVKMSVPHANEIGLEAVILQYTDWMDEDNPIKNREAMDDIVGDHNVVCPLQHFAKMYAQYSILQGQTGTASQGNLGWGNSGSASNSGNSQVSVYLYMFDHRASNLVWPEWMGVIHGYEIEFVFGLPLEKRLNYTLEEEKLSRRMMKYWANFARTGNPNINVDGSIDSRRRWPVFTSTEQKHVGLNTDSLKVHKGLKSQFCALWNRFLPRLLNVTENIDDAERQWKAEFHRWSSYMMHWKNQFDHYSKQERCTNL
Sequence of Cholinesterase (Equus caballus, UniProt P81908) (P81908 whole entry): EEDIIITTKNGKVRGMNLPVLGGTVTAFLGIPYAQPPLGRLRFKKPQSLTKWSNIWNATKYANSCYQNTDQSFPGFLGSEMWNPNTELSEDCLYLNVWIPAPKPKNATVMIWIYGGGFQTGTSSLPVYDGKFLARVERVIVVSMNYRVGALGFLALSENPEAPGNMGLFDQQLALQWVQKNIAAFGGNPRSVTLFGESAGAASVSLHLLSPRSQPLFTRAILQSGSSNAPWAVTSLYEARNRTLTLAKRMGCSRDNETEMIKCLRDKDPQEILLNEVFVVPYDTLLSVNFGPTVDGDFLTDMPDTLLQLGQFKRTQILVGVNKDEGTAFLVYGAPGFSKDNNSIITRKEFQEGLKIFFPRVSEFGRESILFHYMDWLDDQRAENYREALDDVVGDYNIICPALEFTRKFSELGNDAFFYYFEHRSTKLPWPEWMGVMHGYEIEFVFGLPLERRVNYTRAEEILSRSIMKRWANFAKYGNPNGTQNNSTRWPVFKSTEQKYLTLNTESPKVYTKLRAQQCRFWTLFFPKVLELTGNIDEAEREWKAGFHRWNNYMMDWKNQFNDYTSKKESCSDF

Take `O=c1c2ccccc2n(CCCCCCn2cc(CO[C@H]3C[C@H](O)[C@@H](CO)O3)nn2)c2ccccc12`: the figures for the half-inhibitory concentration (IC50) on Acetylcholinesterase [1] and at Cholinesterase [2] were 167 µM and 42.8 µM, respectively.
As for `CC(=O)Nc1nc(Cl)c2ncn(C3O[C@H]4[C@H](OC(=O)[C@@H]4O)[C@H]3OC(C)=O)c2n1` (stereo partly drawn), the results for the Ki on Cholinesterase [3] and on Acetylcholinesterase [4] were over 100 µM and 23.7 µM, respectively.
Take `CO[C@H]1O[C@H](Cn2c(=O)c3c(ncn3C)n(C)c2=O)[C@@H](OC(C)=O)[C@H](OC(C)=O)[C@H]1OC(C)=O`: the Ki worked out at 4.3 µM at Acetylcholinesterase [5] and 4 µM on Cholinesterase [6].
Consider `COc1ccc2c(c1)c(=O)c1ccccc1n2CCCCCCn1cc(CO[C@@H]2O[C@H](CO)[C@H](O)[C@H](O)[C@H]2O)nn1`, for which the IC50 was 44.7 µM against Acetylcholinesterase [1] and 65.6 µM against Cholinesterase [2].
On Acetylcholinesterase [5], `CCCCCCCCCCCCNC(=O)[C@@H](OCc1ccccc1)[C@H]1OC(OC(C)=O)[C@H](OC(C)=O)[C@H]1OC(C)=O` (stereo partly drawn) came in with a Ki of over 100 µM.
Turning to `CC1(C)O[C@H]2[C@@H](O1)[C@@H](CNCCCCCCCCCCNc1c3c(nc4ccccc14)CCCC3)O[C@@H]1OC(C)(C)O[C@@H]12`, the IC50 worked out at 0.026 µM on Cholinesterase [7] and 0.0076 µM against Acetylcholinesterase [8].
On to `CC(=O)Nc1nc(Cl)c2ncn(C3O[C@H](C(=O)O)[C@@H](OC(C)=O)[C@@H](OC(C)=O)[C@H]3OC(C)=O)c2n1` (stereo partly drawn), for which the Ki at Cholinesterase [3] is over 100 µM; at Acetylcholinesterase [4], 26.9 µM.
`CC(=O)Nc1nc(NCc2ccccc2)c2ncn(C3O[C@H](CC(=O)NCc4ccccc4)[C@H](OC(C)=O)[C@H]3OC(C)=O)c2n1` (stereo partly drawn): the Ki is over 100 µM on Cholinesterase [3] and 50.5 µM at Acetylcholinesterase [4].
`CC(=O)Nc1nc(Cl)c2c(ncn2[C@H]2O[C@H](COCc3ccccc3)[C@@H](OCc3ccccc3)[C@H](OCc3ccccc3)[C@@H]2OCc2ccccc2)n1`: the Ki at Cholinesterase [3] is 0.05 µM. That is a double-digit nanomolar value.
For the molecule `CCCCCCCCCCCCNC(=O)[C@@H](OCc1ccccc1)[C@H]1O[C@H](N=[N+]=[N-])[C@H](OC(C)=O)[C@H]1OCc1ccccc1`, the Ki on Acetylcholinesterase [5] is over 100 µM.
`COc1cc(CO)ccc1O[C@@H]1O[C@H](CO)[C@@H](O)[C@H](O)[C@H]1O` [VANILLOLOSIDE]: on Acetylcholinesterase [9], the half-maximal inhibitory concentration (IC50) is 4.55 µM. This counts as single-digit micromolar.
Consider `CC1(C)O[C@H]2[C@@H](O1)[C@@H](CNCCCCCCCCCNc1c3c(nc4ccccc14)CCCC3)O[C@@H]1OC(C)(C)O[C@@H]12`, for which the half-maximal inhibitory concentration (IC50) was 0.037 µM against Cholinesterase [7] and 0.0048 µM against Acetylcholinesterase [8].
For the molecule `CC1(C)O[C@H]2O[C@H](CNCCCCCCCCCNc3c4c(nc5ccccc35)CCCC4)[C@H](O)[C@H]2O1`, the values for the IC50 on Cholinesterase [7] and against Acetylcholinesterase [8] were 0.025 µM and 0.0051 µM, respectively.
For `CC1(C)O[C@H]2O[C@H](NCCCCCCCNc3c4c(nc5ccccc35)CCCC4)[C@H](O)[C@H]2O1`, the IC50 came out at 0.027 µM against Cholinesterase [7] and 0.0087 µM against Acetylcholinesterase [8].
The molecule `CCCCCCCCCCCCNC(=O)[C@@H](OCc1ccccc1)[C@H]1OC(N=[N+]=[N-])[C@H](OC(C)=O)[C@H]1OC(C)=O` (stereo partly drawn) yielded a Ki on Acetylcholinesterase [5] of over 100 µM.
As to `O=c1c2ccccc2n(CCCCCCn2cc(CO[C@@H]3O[C@H](CO)[C@H](O)[C@H](O)[C@H]3O)nn2)c2ccccc12`, the 50% inhibitory concentration (IC50) was 44.7 µM on Acetylcholinesterase [1] and 38.3 µM on Cholinesterase [2].
As to `COc1ccc2c(c1)c(=O)c1ccccc1n2CCCCCCn1cc(CO[C@H]2C[C@H](O)[C@@H](CO)O2)nn1`, the IC50 against Acetylcholinesterase [1] came to 85.1 µM; at Cholinesterase [2], 35.4 µM.
Take `CCCCCCCCCCCCNC(=O)[C@@H](OCc1ccccc1)[C@H]1OC(n2cc(-c3ccccc3)nn2)[C@H](OC(C)=O)[C@H]1OC(C)=O` (stereo partly drawn): at Acetylcholinesterase [5], the affinity corresponds to a Ki of 9.5 µM.
Turning to `CC(=O)Nc1nc(Cl)c2ncn(C3O[C@H](CC(=O)NCc4ccccc4)[C@H](OC(C)=O)[C@H]3OC(C)=O)c2n1` (stereo partly drawn), the Ki was over 100 µM at Cholinesterase [3] and 14.8 µM at Acetylcholinesterase [4].
At Acetylcholinesterase [5], `CCCCCCCCCCCCNC(=O)[C@@H](OCc1ccccc1)[C@H]1OC(OC(C)=O)[C@H](OC(C)=O)[C@H]1OCc1ccccc1` (stereo partly drawn) registered an inhibition constant (Ki) of over 100 µM.
For `CC(=O)Nc1nc(Cl)c2c(ncn2C2O[C@H](C(=O)NCc3ccccc3)[C@@H](OC(C)=O)[C@@H](OC(C)=O)[C@H]2OC(C)=O)n1` (stereo partly drawn), the Ki at Cholinesterase [3] was over 100 µM; at Acetylcholinesterase [4], 18.7 µM.
The corresponding values for `CC(=O)Nc1nc(Cl)c2ncn(C3O[C@H](C(=O)NCc4ccccc4)[C@@H](OC(C)=O)[C@@H](OC(C)=O)[C@H]3OC(C)=O)c2n1` (stereo partly drawn) are over 100 µM and 31 µM.
On to `CCCCCCCCCCCCNC(=O)[C@@H](OCc1ccccc1)[C@H]1O[C@@H](n2cc(-c3ccccc3)nn2)[C@H](OC(C)=O)[C@H]1OCc1ccccc1`, for which, at Acetylcholinesterase [5], the Ki worked out at 3.53 µM.
Turning to `COC1O[C@H](Cn2ccc(=O)[nH]c2=O)[C@@H](OCc2ccccc2)[C@H](OCc2ccccc2)[C@H]1OCc1ccccc1` (stereo partly drawn), the Ki at Cholinesterase [6] is under 100 µM.
For `CC1(C)O[C@H]2O[C@H](CNCCCCCCCCCCNc3c4c(nc5ccccc35)CCCC4)[C@H](O)[C@H]2O1`, the values for the IC50 on Cholinesterase [7] and on Acetylcholinesterase [8] were 0.031 µM and 0.01 µM, respectively.
In the case of `CC(=O)Nc1nc(Cl)c2c(ncn2C2O[C@H](C(=O)O)[C@@H](OC(C)=O)[C@@H](OC(C)=O)[C@H]2OC(C)=O)n1` (stereo partly drawn), the inhibition constant Ki at Cholinesterase [3] was over 100 µM; on Acetylcholinesterase [4], 37.9 µM.
Regarding `COC1O[C@H](Cn2ccc(=O)n(C[C@H]3O[C@H](OC)[C@H](O)[C@@H](O)[C@@H]3O)c2=O)[C@@H](O)[C@H](O)[C@H]1O` (stereo partly drawn), the Ki was 22.9 µM at Acetylcholinesterase [5] and under 100 µM at Cholinesterase [6].
`CCCCCCCCCCCCNC(=O)[C@@H](OCc1ccccc1)[C@H]1O[C@H](n2cc(-c3ccccc3)nn2)[C@H](OC(C)=O)[C@H]1OCc1ccccc1` yielded a Ki at Acetylcholinesterase [5] of 9.69 µM.
Regarding `CO[C@@H]1O[C@H](CNCCCCCCCCCNc2c3c(nc4ccccc24)CCCC3)[C@H]2OC(C)(C)O[C@@H]12`, the IC50 against Cholinesterase [7] was determined as 0.037 µM; against Acetylcholinesterase [8] it was 0.09 µM.
`Cn1cnc2c1c(=O)n(C[C@H]1O[C@@H]3OC(C)(C)O[C@@H]3[C@H]1OCc1ccccc1)c(=O)n2C` gave a Ki on Acetylcholinesterase [5] of over 100 µM.
Take `COc1ccc2c(c1)c(=O)c1ccccc1n2CCCCCCn1cc(CO[C@@H]2O[C@H](CO)[C@@H](O)[C@H]2O)nn1`: the IC50 at Acetylcholinesterase [1] was found to be 81.8 µM; at Cholinesterase [2], 35.1 µM.
With `CO[C@H]1O[C@H](Cn2cnc3c(Cl)nc(NC(C)=O)nc32)[C@@H](OCc2ccccc2)[C@H](OCc2ccccc2)[C@H]1OCc1ccccc1`, the Ki at Acetylcholinesterase [5] was 7.1 µM; at Cholinesterase [6], under 100 µM.
In the case of `CCCCCCCCCCCCNC(=O)[C@@H](OCc1ccccc1)[C@H]1O[C@@H](N=[N+]=[N-])[C@H](OC(C)=O)[C@H]1OCc1ccccc1`, the Ki at Acetylcholinesterase [5] was 1.73 µM.
Turning to `CC1(C)O[C@H]2O[C@H](CNCCCCCCCCNc3c4c(nc5ccccc35)CCCC4)[C@H](O)[C@H]2O1`, the IC50 against Cholinesterase [7] was determined as 0.011 µM; against Acetylcholinesterase [8] it was 0.084 µM.
For the molecule `COC1O[C@H](Cn2ccc(=O)n(C[C@H]3O[C@H](OC)[C@H](OCc4ccccc4)[C@@H](OCc4ccccc4)[C@@H]3OCc3ccccc3)c2=O)[C@@H](OCc2ccccc2)[C@H](OCc2ccccc2)[C@H]1OCc1ccccc1` (stereo partly drawn), the values for the Ki on Acetylcholinesterase [5] and at Cholinesterase [6] were 4.2 µM and 4 µM, respectively.
`CC(=O)O[C@H]1C(NS(C)(=O)=O)O[C@H](Cn2c(=O)c3c(ncn3C)n(C)c2=O)[C@@H]1OCc1ccccc1` (stereo partly drawn): the Ki on Acetylcholinesterase [5] is 6.61 µM.
Take `CO[C@@H]1O[C@H](CNCCCCCCCCCCNc2c3c(nc4ccccc24)CCCC3)[C@H]2OC(C)(C)O[C@@H]12`: the concentration for half-maximal inhibition (IC50) against Cholinesterase [7] is 0.064 µM; against Acetylcholinesterase [8] it was 0.065 µM.
The corresponding values for `CC1(C)O[C@H]2O[C@H](CNCCCCCCCCCCCNc3c4c(nc5ccccc35)CCCC4)[C@H](O)[C@H]2O1` are 0.0049 µM and 0.0022 µM.

The term IC50 denotes the midpoint of a concentration-inhibition curve. High values mean a need for much substance, low ones inhibition by little substance. One may read the Ki as a measure of affinity in units of concentration, obtained from inhibition or displacement. Read a low Ki as a stronger hold on the target.

Source of the values: ChEMBL document CHEMBL5233206, “An overview on the synthesis of carbohydrate-based molecules with biological activity related to neurodegenerative diseases” (RSC Med Chem, 2021).
